Experimental data reported in patent US20250248955A1, “PHENYL ACRYLIC ACID COMPOUND, AND PREPARATION METHOD AND APPLICATION THEREOF” (LONGIVITRON (SUZHOU) BIOTECHNOLOGY CO., LTD, priority 2022, published 2025).
pIC50: −log10 of the molar value.

biological target: ACAT1 (Homo sapiens (Human), UniProt P24752); experiment: ACAT1 small molecule inhibitor screening (enzyme activity, IC50); assay type: biochemical; details: summary of Table 1; unit given as mol/L
Description: ACAT1 can catalyze two molecules of acetyl coenzyme A to reversibly form acetoacetyl coenzyme A. Its activity was measured through the reaction between ACAT1-catalyzed substrate acetoacetyl-coenzyme A and coenzyme A, from which the product acetyl-coenzyme A is produced. Since acetoacetyl-coenzyme A is specifically absorbed in a specific spectrum, the impact on the enzyme activity of ACAT1 can be reflected through the detection of an increase or decrease of absorption in a specific spectrum.
ACAT1 recombinant proteins were expressed and purified by Escherichia coli, and the concentration of ACAT1 recombinant proteins obtained was 1 mg/mL. The buffers adopted for ACAT1 small molecule inhibitor screening were 50 mM Tris-HCl (pH 8.1), 20 mM MgCl2, and 40 mM KCl. In 200 μL of enzyme catalytic system, 1 μL of ACAT1 recombinant proteins, the substrate acetyl-coenzyme A whose final concentration was changed from 25 μM to 100 μM through a CPM probe, and small molecule inhibitors at different concentrations were added, respectively. The measurement was carried out through a microplate reader (Biotek Synergy H1) and using excitation light at 355 nm and emission light at 460 nm, and the IC50 of the inhibitors was calculated through software Prism 7.0.

Chain of ACAT1 (P24752 34-427): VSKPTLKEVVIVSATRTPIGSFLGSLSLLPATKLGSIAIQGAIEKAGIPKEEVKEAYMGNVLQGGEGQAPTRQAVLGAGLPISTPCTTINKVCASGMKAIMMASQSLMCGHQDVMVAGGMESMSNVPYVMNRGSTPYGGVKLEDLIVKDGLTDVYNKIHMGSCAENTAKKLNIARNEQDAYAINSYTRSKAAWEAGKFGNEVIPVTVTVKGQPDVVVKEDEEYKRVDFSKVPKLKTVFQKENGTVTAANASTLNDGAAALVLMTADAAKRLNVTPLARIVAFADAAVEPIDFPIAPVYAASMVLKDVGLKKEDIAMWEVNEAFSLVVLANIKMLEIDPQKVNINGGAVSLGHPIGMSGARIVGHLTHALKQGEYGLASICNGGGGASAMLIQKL

| pIC50 | SMILES |
| --- | --- |
| > 4.00 | COc1ccc(CCOc2ccc(NC(=O)/C=C/c3ccc(O)c(O)c3)cc2)cc1 [Compound M5] |
| > 4.00 | Cc1ccc(CCOc2ccc(NC(=O)/C=C/c3ccc(O)c(O)c3)cc2)cc1 [Compound M7] |
| > 4.00 | COc1ccc(CCOc2ccc(NC(=O)/C=C/c3ccc(O)c(O)c3)cc2)cc1OC [Compound M9] |
| > 4.00 | COc1cc(CCOc2ccc(NC(=O)/C=C/c3ccc(O)c(O)c3)cc2)cc(OC)c1OC [Compound M10] |
| > 4.00 | COCOc1ccc(/C=C/C(=O)Nc2ccc(OCCc3ccc(OC)cc3)cc2)cc1OCOC [Compound M12] |
| > 4.00 | COCOc1ccc(/C=C/C(=O)Nc2ccc(OCCc3cc(OC)c(OC)c(OC)c3)cc2)cc1OCOC [Compound M17] |
